From patent US4407806A, “Fungicidal, herbicidal and plant growth regulating pyridyl-containing ethers” (Chevron Research Company, priority 1981, dated 1983)

Columns and labels:
Format in all cases: in vivo
[1] = test system: celery late blight organism Septoria apii; experiment: whole plant or invertebrate; details: 336 h, read-out: Fungicidal Activity Control %, Celery L.B.
[2] = test system: Soybean; experiment: Post-emergent herbicidal test; details: Glycine max, 504 h, post-emergence, 33 micrograms/cm^2, 3 weeks, 0-to-100 scale, read-out: Herbicidal Activity Post-Emergence % Control, Soybean
[3] = test system: Lambsquarter (Chenopodium album); experiment: Post-emergent herbicidal test; details: 504 h, post-emergence, 33 micrograms/cm^2, 3 weeks, 0-to-100 scale, read-out: Herbicidal Activity Post-Emergence % Control, L'Qtr.
[4] = test system: Pigweed (Amaranthus retraflexus); experiment: Post-emergent herbicidal test; details: 504 h, post-emergence, 33 micrograms/cm^2, 3 weeks, 0-to-100 scale
[5] = test system: Wild Oats (Avena fatura); experiment: Post-emergent herbicidal test; details: 504 h, post-emergence, 33 micrograms/cm^2, 3 weeks, 0-to-100 scale
[6] = test system: Watergrass (Echinochloa crusgalli); experiment: Post-emergent herbicidal test; details: Echinochloa crus-galli, 504 h, post-emergence, 33 micrograms/cm^2, 3 weeks, 0-to-100 scale, read-out: Herbicidal Activity Post-Emergence % Control, Water Grass
[7] = test system: Crabgrass (Digitaria sanguinalis); experiment: Post-emergent herbicidal test; details: 504 h, post-emergence, 33 micrograms/cm^2, 3 weeks, 0-to-100 scale, read-out: Herbicidal Activity Post-Emergence % Control, Crab Grass
[8] = test system: Mustard (Brassica arvensis); experiment: Post-emergent herbicidal test; details: 504 h, post-emergence, 33 micrograms/cm^2, 3 weeks, 0-to-100 scale
[9] = test system: Cotton plants; experiment: Cotton Regrowth; details: Gossypium hirsutum, 13 to 18 days, 100% is total inhibition, read-out: Regrowth (percent inhibition of cotton regrowth)
Experimental: Compounds of this invention were tested to determine their plant-growth regulating effects on cotton leaf regrowth.
Cotton plants, 4 to 5 weeks old, containing 4 true leaves above the cotyledonary leaves are employed. Growth beyond the second true leaf was removed. Within 24 hours the plants are sprayed with a 2000 ppm solution of the test compound. After spraying, the plants are transferred to a greenhouse maintained at 85° F. (±5° F.) and incubated there for from 13 to 18 days. The plants during this period are sub-irrigated in 1/4" of water.
After this period, regrowth is determined as a percent inhibition of auxiliary bud regrowth--100% is total inhibition while 0% is no inhibition.

[10] = test system: Tomato Late Blight organism Phytophthora infestans; experiment: whole plant or invertebrate; details: 168 h, read-out: Fungicidal Activity Control %, Tomato L.B.
[11] = test system: grape downy mildew organism Plasmopara viticola; experiment: Grape Downy Mildew control (detached grape leaves); details: vs untreated check, read-out: Fungicidal Activity Control %, Grape D.M.
[12] = test system: Idaho pinto bean plants; experiment: Axillary Bud Growth Inhibition Of Pinto Bean Plants; details: 288 h; 625-ppm; twelve days after treatment; vs untreated check; read-out: Bud Inhib (percent inhibition of axillary bud growth)
Experimental: Compounds of this invention were tested to determine their plant-growth-retarding effects on axillary bud growth of pinto beans.
Idaho pinto bean plants (13-16 days old) having monofoliate leaves fully developed and first trifoliates beginning to unfold were used. All growth 5 mm above the monofoliate leaf node was removed with forceps 1 to 4 hours prior to treatment with the test compounds. Four plants were used for each test compound.
A 625-ppm solution of the test compound in a 2% aqueous acetone solution containing a small amount of a nonionic surfactant was sprayed onto the pinto bean plants until runoff. After drying, the treated plants were transferred to a greenhouse maintained at 20°-23° C. and watered at regular intervals. Twelve days after treatment, the bud growth at the axil of the monofoliate leaf was determined and expressed as percent inhibition of axillary bud growth as compared to untreated check plants.

[13] = test system: Bean Powdery Mildew organism Erisiphe polygoni; experiment: Bean Powdery Mildew control; details: 240 h, 10 days, vs untreated check, read-out: Fungicidal Activity Control %, Bean P.M.
Experimental: The compounds of the invention were tested for the control of the Bean Powdery Mildew organism […] polygoni. Seedling bean plants were sprayed with a 250 ppm solution of the test compound in acetone, water and a nonionic emulsifier. The sprayed plants were then inoculated 1 day later with organism. […] The percent disease control provided by a given test compound was based on the percent disease reduction relative to the untreated check plants.

[14] = test system: Soybean; experiment: Pre-emergent herbicidal test; details: Glycine max, 504 h; pre-emergence; 33 micrograms/cm^2; 3 weeks; 0-to-100 scale; read-out: Herbicidal Activity Pre-Emergence % Control, Soybean
Experimental: (§1) An acetone solution of the test compound was prepared by mixing 750 mg of the compound, 220 mg of a nonionic surfactant and 25 ml of acetone. This solution was added to approximately 125 ml of water containing 156 mg of surfactant.
(§2) Seeds of the test vegetation were planted in a pot of […] and the test solution was sprayed uniformly onto the soil surface at a dose of 33 micrograms/cm^2. The pot was watered and placed in a greenhouse. […] At the end of this period, the herbicidal effectiveness of the compound was rated based on the physiological observations. A 0-to-100 scale was used, 0 representing no phytotoxicity, 100 representing complete kill.

[15] = test system: Lambsquarter (Chenopodium album); experiment: Pre-emergent herbicidal test; details: 504 h, pre-emergence, 33 micrograms/cm^2, 3 weeks, 0-to-100 scale, read-out: Herbicidal Activity Pre-Emergence % Control, L'Qtr.
Experimental: as §1, §2

[16] = test system: Pigweed (Amaranthus retraflexus); experiment: Pre-emergent herbicidal test; details: 504 h, pre-emergence, 33 micrograms/cm^2, 3 weeks, 0-to-100 scale
Experimental: as §1, §2

[17] = test system: Wild Oats (Avena fatura); experiment: Pre-emergent herbicidal test; details: 504 h, pre-emergence, 33 micrograms/cm^2, 3 weeks, 0-to-100 scale
Experimental: as §1, §2

[18] = test system: Watergrass (Echinochloa crusgalli); experiment: Pre-emergent herbicidal test; details: Echinochloa crus-galli, 504 h; pre-emergence; 33 micrograms/cm^2; 3 weeks; 0-to-100 scale; read-out: Herbicidal Activity Pre-Emergence % Control, Water Grass
Experimental: as §1, §2

[19] = test system: Crabgrass (Digitaria sanguinalis); experiment: Pre-emergent herbicidal test; details: 504 h, pre-emergence, 33 micrograms/cm^2, 3 weeks, 0-to-100 scale, read-out: Herbicidal Activity Pre-Emergence % Control, Crab Grass
Experimental: as §1, §2

[20] = test system: Mustard (Brassica arvensis); experiment: Pre-emergent herbicidal test; details: 504 h, pre-emergence, 33 micrograms/cm^2, 3 weeks, 0-to-100 scale
Experimental: as §1, §2

[21] = test system: tomato Early Blight organism, Alternaria solani conidia; experiment: Tomato Early Blight control; details: 288 h, about 12 days in greenhouse, vs untreated check, read-out: Fungicidal Activity Control %, Tomato E.B.
Experimental: Compounds of the invention were tested for the control of the tomato Early Blight organism, Alternaria solani conidia. Tomato (variety Bonny Best) seedlings of 6 to 7 weeks old were used. The tomato plants were sprayed with a 250 ppm solution of the test compound in an acetone-and-water solution containing a small amount of a nonionic emulsifier. The sprayed plants were inoculated one day later with the organism, placed in the environmental chamber and incubated at […] and 100% relative humidity for 24 hours. Following the incubation, the plants were maintained in a greenhouse for about 12 days. Percent diseases control was based on the percent disease development on untreated check plants.

| Compound | pest or weed control at 250 ppm [1] | plant injury at 5000 ppm, 33 µg/cm2 [2] | pest or weed control at 5000 ppm, 33 µg/cm2 [3] | pest or weed control at 5000 ppm, 33 µg/cm2 [4] | pest or weed control at 5000 ppm, 33 µg/cm2 [5] | pest or weed control at 5000 ppm, 33 µg/cm2 [6] | pest or weed control at 5000 ppm, 33 µg/cm2 [7] | pest or weed control at 5000 ppm, 33 µg/cm2 [8] | inhibition at 2000 ppm [9] | pest or weed control at 250 ppm [10] | pest or weed control at 250 ppm [11] | pest or weed control at 625 µg/mL [12] | pest or weed control at 250 ppm [13] | plant injury at 33 µg/cm2 [14] | pest or weed control at 33 µg/cm2 [15] | pest or weed control at 33 µg/cm2 [16] | pest or weed control at 33 µg/cm2 [17] | pest or weed control at 33 µg/cm2 [18] | pest or weed control at 33 µg/cm2 [19] | pest or weed control at 33 µg/cm2 [20] | further results |
| --- | --- | --- | --- | --- | --- | --- | --- | --- | --- | --- | --- | --- | --- | --- | --- | --- | --- | --- | --- | --- | --- |
| Clc1ccc(COC(c2cccnc2)c2ccc(Cl)cc2Cl)c(Cl)c1 (stereo not shown) [Compound 1, 3-pyridyl-2,4-dichlorophenylcarbinol 2,4-dichlorobenzylether] | 88% | 20% | 20% | 30% | 0% | 0% | 0% | 30% | 55% | 4% | 0% | 85% | 100% | 0% | 0% | 0% | 0% | 0% | 0% | 0% | – |
| OC(c1cccnc1)c1ccc(Cl)cc1Cl (stereo not shown) [Compound 2, 3-pyridyl-2,4-dichlorophenylcarbinol] | 31% | 0% | 0% | 0% | 0% | 0% | 0% | 0% | 0% | 0% | 25% | 0% | 100% | 0% | 0% | 0% | 0% | 0% | 0% | 0% | – |
| C=CCOC(c1cccnc1)c1ccc(Cl)cc1Cl (stereo not shown) [Compound 3, 3-pyridyl-2,4-dichlorophenylcarbinol allylether] | 48% | 33% | 60% | 50% | 0% | 0% | 0% | 25% | 0% | 0% | 15% | 25% | 100% | 0% | 98% | 85% | 0% | 73% | 90% | 45% | pest or weed control at 250 ppm [21]: 4% |
| C=C(Cl)COC(c1cccnc1)c1ccc(Cl)cc1Cl (stereo not shown) [Compound 4, 3-pyridyl-2,4-dichlorophenylcarbinol 2-chloroallylether] | 83% | 28% | 55% | 45% | 0% | 0% | 0% | 58% | 0% | 0% | 27% | 30% | 100% | 0% | 73% | 35% | 33% | 83% | 70% | 30% | pest or weed control at 250 ppm [21]: 73% |
| FC(F)(F)c1cccc(COC(c2cccnc2)c2ccc(Cl)cc2Cl)c1 (stereo not shown) [Compound 5, 3-pyridyl-2,4-dichlorophenylcarbinol 3-trifluoromethylbenzylether] | 91% | 30% | 63% | 55% | 0% | 0% | 0% | 40% | 65% | 0% | 12% | 70% | 100% | 30% | 25% | 45% | 15% | 55% | 70% | 25% | pest or weed control at 250 ppm [21]: 71% |
| c1ccc(-c2ccc(COC(c3ccccc3)c3cccnc3)cc2)cc1 (stereo not shown) [Compound 11, 3-pyridylphenylcarbinol 4-phenylbenzylether] | 47% | – | – | – | – | – | – | – | – | 0% | 13% | 0% | 100% | – | – | – | – | – | – | – | pest or weed control at 250 ppm [21]: 5% |
